In US20230085307A1, “PYRIDAZINONE COMPOUND AND HERBICIDE” (NISSAN CHEMICAL CORPORATION, priority 2019, published 2023):

What was measured:
green foxtail = assay: Test Example 5: herbicidal effect by foliage application, plastic box (Table 20, symbol G); format: in vivo, green foxtail (Setaria viridis); details: foliage application after 14-day growth, evaluated three weeks after application; for herbicidal effect on G: green foxtail (evaluation grade 0-5): 320 g/ha; for Herbicidal effect by foliage application, G: green foxtail: amount of applied herbicide 320 g/ha
In short: (§1)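 Plants were sown into sterilized diluvial soil under about 1.5 cm cover and kept in a greenhouse at 25° C. to 30° C. Fourteen days on, foliage received an even spray of the diluted emulsion. Herbicidal or crop effect was judged three weeks afterwards.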

southern crabgrass = assay: Test Example 5: herbicidal effect by foliage application, plastic box (Table 20, symbol F); format: in vivo, southern crabgrass (Digitaria ciliaris); details: foliage application after 14-day growth, evaluated three weeks after application; for herbicidal effect on F: southern crabgrass (evaluation grade 0-5): 320 g/ha; for Herbicidal effect by foliage application, F: southern crabgrass: amount of applied herbicide 320 g/ha
In short: as §1

blackgrass = assay: Test Example 5: herbicidal effect by foliage application, plastic box (Table 20, symbol J); format: in vivo, blackgrass (Alopecurus myosuroides); details: foliage application after 14-day growth, evaluated three weeks after application; for herbicidal effect on J: blackgrass (evaluation grade 0-5): 320 g/ha; for Herbicidal effect by foliage application, J: blackgrass: amount of applied herbicide 320 g/ha
In short: as §1

wild oat = assay: Test Example 5: herbicidal effect by foliage application, plastic box (Table 20, symbol I); format: in vivo, wild oat (Avena fatua); details: foliage application after 14-day growth, evaluated three weeks after application; for herbicidal effect on I: wild oat (evaluation grade 0-5): 320 g/ha; for Herbicidal effect by foliage application, I: wild oat: amount of applied herbicide 320 g/ha
In short: as §1

lambsquarters = assay: Test Example 5: herbicidal effect by foliage application, plastic box (Table 20, symbol O); format: in vivo, lambsquarters (Chenopodium album); details: foliage application after 14-day growth, evaluated three weeks after application; for herbicidal effect on O: lambsquarters (evaluation grade 0-5): 320 g/ha; for Herbicidal effect by foliage application, O: lambsquarters: amount of applied herbicide 320 g/ha
In short: as §1

Chinese sprangletop = assay: Test Example 3: herbicidal effect by foliage application, Wagner pot (Table 18, symbol D); format: in vivo, chinese sprangletop (Leptochloa chinensis); details: 320 g/ha
In short: (§2)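 Plants were sown in alluvial soil held under 0.1–0.5 cm standing water and grown 14 days in a greenhouse at 25–30 °C. An emulsifiable formulation, water-diluted to the set dose, was then sprayed onto the foliage, and effects were scored three weeks later using previously defined criteria.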

redroot pigweed = assay: Test Example 5: herbicidal effect by foliage application, plastic box (Table 20, symbol N); format: in vivo, redroot pigweed (Amaranthus retroflexus); details: foliage application after 14-day growth, evaluated three weeks after application; for herbicidal effect on N: redroot pigweed (evaluation grade 0-5): 320 g/ha; for Herbicidal effect by foliage application, N: redroot pigweed: amount of applied herbicide 320 g/ha
In short: as §1

persian speedwell = assay: Test Example 5: herbicidal effect by foliage application, plastic box (Table 20, symbol R); format: in vivo, Persian speedwell (Veronica persica); details: foliage application after 14-day growth, evaluated three weeks after application; for herbicidal effect on R: persian speedwell (evaluation grade 0-5): 320 g/ha; for Herbicidal effect by foliage application, R: persian speedwell: amount of applied herbicide 320 g/ha
In short: as §1

barnyard grass [1] = assay: Test Example 5: herbicidal effect by foliage application, plastic box (Table 20, symbol H); format: in vivo, barnyard grass (Echinochloa crus-galli); details: foliage application after 14-day growth, evaluated three weeks after application; for herbicidal effect on H: barnyard grass (evaluation grade 0-5): 320 g/ha; for Herbicidal effect by foliage application, H: barnyard grass: amount of applied herbicide 320 g/ha
In short: as §1

Italian ryegrass = assay: Test Example 5: herbicidal effect by foliage application, plastic box (Table 20, symbol K); format: in vivo, Italian ryegrass (Lolium multiflorum); details: foliage application after 14-day growth, evaluated three weeks after application; for herbicidal effect on K: Italian ryegrass (evaluation grade 0-5): 320 g/ha; for Herbicidal effect by foliage application, K: Italian ryegrass: amount of applied herbicide 320 g/ha
In short: as §1

velvetleaf = assay: Test Example 5: herbicidal effect by foliage application, plastic box (Table 20, symbol M); format: in vivo, velvetleaf (Abutilon theophrasti); details: foliage application after 14-day growth, evaluated three weeks after application; for herbicidal effect on M: velvetleaf (evaluation grade 0-5): 320 g/ha; for Herbicidal effect by foliage application, M: velvetleaf: amount of applied herbicide 320 g/ha
In short: as §1

windgrass = assay: Test Example 5: herbicidal effect by foliage application, plastic box (Table 20, symbol L); format: in vivo, windgrass (Apera spica-venti); details: foliage application after 14-day growth, evaluated three weeks after application; for herbicidal effect on L: windgrass (evaluation grade 0-5): 320 g/ha; for Herbicidal effect by foliage application, L: windgrass: amount of applied herbicide 320 g/ha
In short: as §1

barnyard grass [2] = assay: Test Example 3: herbicidal effect by foliage application, Wagner pot (Table 18, symbol H); format: in vivo, barnyard grass (Echinochloa crus-galli); details: 320 g/ha
In short: as §2

rice flat sedge = assay: Test Example 3: herbicidal effect by foliage application, Wagner pot (Table 18, symbol E); format: in vivo, rice flat sedge (Cyperus iria); details: 320 g/ha
In short: as §2

chickweed = assay: Test Example 5: herbicidal effect by foliage application, plastic box (Table 20, symbol P); format: in vivo, common chickweed (Stellaria media); details: foliage application after 14-day growth, evaluated three weeks after application; for herbicidal effect on P: chickweed (evaluation grade 0-5): 320 g/ha; for Herbicidal effect by foliage application, P: chickweed: amount of applied herbicide 320 g/ha
In short: as §1

| SMILES | herbicidal effect on G: green foxtail (evaluation grade 0-5) (green foxtail) | herbicidal effect on F: southern crabgrass (evaluation grade 0-5) (southern crabgrass) | herbicidal effect on J: blackgrass (evaluation grade 0-5) (blackgrass) | herbicidal effect on I: wild oat (evaluation grade 0-5) (wild oat) | herbicidal effect on O: lambsquarters (evaluation grade 0-5) (lambsquarters) | herbicidal effect on Chinese sprangletop (D) (Chinese sprangletop) | herbicidal effect on N: redroot pigweed (evaluation grade 0-5) (redroot pigweed) | herbicidal effect on R: persian speedwell (evaluation grade 0-5) (persian speedwell) | herbicidal effect on H: barnyard grass (evaluation grade 0-5) (barnyard grass [1]) | herbicidal effect on K: Italian ryegrass (evaluation grade 0-5) (Italian ryegrass) | herbicidal effect on M: velvetleaf (evaluation grade 0-5) (velvetleaf) | herbicidal effect on L: windgrass (evaluation grade 0-5) (windgrass) | herbicidal effect on barnyard grass (H) (barnyard grass [2]) | herbicidal effect on rice flat sedge (E) (rice flat sedge) | herbicidal effect on P: chickweed (evaluation grade 0-5) (chickweed) | Herbicidal effect by foliage application, G: green foxtail (green foxtail) | Herbicidal effect by foliage application, F: southern crabgrass (southern crabgrass) | Herbicidal effect by foliage application, J: blackgrass (blackgrass) | Herbicidal effect by foliage application, I: wild oat (wild oat) | Herbicidal effect by foliage application, O: lambsquarters (lambsquarters) | further results |
| --- | --- | --- | --- | --- | --- | --- | --- | --- | --- | --- | --- | --- | --- | --- | --- | --- | --- | --- | --- | --- | --- |
| Cc1nn(C)c(=O)c(-c2c(-c3ccc(C(F)(F)F)cc3F)sc3c(Cl)cccc23)c1O [4-037] | 2 (Herbicidal rate of 20% or more and less than 40%) | 0 (Herbicidal rate of 5% or less (almost no effect)) | 0 (Herbicidal rate of 5% or less (almost no effect)) | 0 (Herbicidal rate of 5% or less (almost no effect)) | 5 (Herbicidal rate of 90% or more (almost completely withered)) | 1 (Herbicidal rate of 5% or more and less than 20%) | 5 (Herbicidal rate of 90% or more (almost completely withered)) | 0 (Herbicidal rate of 5% or less (almost no effect)) | 0 (Herbicidal rate of 5% or less (almost no effect)) | 0 (Herbicidal rate of 5% or less (almost no effect)) | 5 (Herbicidal rate of 90% or more (almost completely withered)) | 5 (Herbicidal rate of 90% or more (almost completely withered)) | 3 (Herbicidal rate of 40% or more and less than 70%) | 0 (Herbicidal rate of 5% or less (almost no effect)) | 4 (Herbicidal rate of 70% or more and less than 90%) | – | – | – | – | – | – |
| Cc1ccccc1-c1sc2c(Cl)cccc2c1-c1c(O)c(C)nn(C)c1=O [4-060] | 0 (Herbicidal rate of 5% or less (almost no effect)) | 0 (Herbicidal rate of 5% or less (almost no effect)) | 0 (Herbicidal rate of 5% or less (almost no effect)) | 0 (Herbicidal rate of 5% or less (almost no effect)) | 0 (Herbicidal rate of 5% or less (almost no effect)) | 1 (Herbicidal rate of 5% or more and less than 20%) | 2 (Herbicidal rate of 20% or more and less than 40%) | 0 (Herbicidal rate of 5% or less (almost no effect)) | 0 (Herbicidal rate of 5% or less (almost no effect)) | 0 (Herbicidal rate of 5% or less (almost no effect)) | 0 (Herbicidal rate of 5% or less (almost no effect)) | 4 (Herbicidal rate of 70% or more and less than 90%) | 3 (Herbicidal rate of 40% or more and less than 70%) | 3 (Herbicidal rate of 40% or more and less than 70%) | 4 (Herbicidal rate of 70% or more and less than 90%) | – | – | – | – | – | – |
| CCCCOc1cccc(-c2sc3c(Cl)cccc3c2-c2c(OC(=O)CCC)c(C)nn(C)c2=O)c1 [4-069] | 0 (Herbicidal rate of 5% or less (almost no effect)) | 0 (Herbicidal rate of 5% or less (almost no effect)) | 0 (Herbicidal rate of 5% or less (almost no effect)) | 0 (Herbicidal rate of 5% or less (almost no effect)) | 0 (Herbicidal rate of 5% or less (almost no effect)) | 3 (Herbicidal rate of 40% or more and less than 70%) | 0 (Herbicidal rate of 5% or less (almost no effect)) | 4 (Herbicidal rate of 70% or more and less than 90%) | 0 (Herbicidal rate of 5% or less (almost no effect)) | 0 (Herbicidal rate of 5% or less (almost no effect)) | 0 (Herbicidal rate of 5% or less (almost no effect)) | 0 (Herbicidal rate of 5% or less (almost no effect)) | 4 (Herbicidal rate of 70% or more and less than 90%) | 3 (Herbicidal rate of 40% or more and less than 70%) | 4 (Herbicidal rate of 70% or more and less than 90%) | – | – | – | – | – | – |
| CCCC(=O)Oc1c(C)nn(C)c(=O)c1-c1c(-c2ccccc2OCc2ccccc2)sc2c(Cl)cccc12 [4-085] | – | – | – | – | – | 0 (Herbicidal rate of 5% or less (almost no effect)) | – | – | – | – | – | – | 2 (Herbicidal rate of 20% or more and less than 40%) | 2 (Herbicidal rate of 20% or more and less than 40%) | – | 0 (Herbicidal rate of 5% or less (almost no effect)) | 0 (Herbicidal rate of 5% or less (almost no effect)) | 0 (Herbicidal rate of 5% or less (almost no effect)) | 0 (Herbicidal rate of 5% or less (almost no effect)) | 0 (Herbicidal rate of 5% or less (almost no effect)) | Herbicidal effect by foliage application, N: redroot pigweed (redroot pigweed): 0 (Herbicidal rate of 5% or less (almost no effect)); Herbicidal effect by foliage application, R: persian speedwell (persian speedwell): 2 (Herbicidal rate of 20% or more and less than 40%); Herbicidal effect by foliage application, H: barnyard grass (barnyard grass [1]): 3 (Herbicidal rate of 40% or more and less than 70%); Herbicidal effect by foliage application, K: Italian ryegrass (Italian ryegrass): 0 (Herbicidal rate of 5% or less (almost no effect)); Herbicidal effect by foliage application, M: velvetleaf (velvetleaf): 0 (Herbicidal rate of 5% or less (almost no effect)); Herbicidal effect by foliage application, L: windgrass (windgrass): 0 (Herbicidal rate of 5% or less (almost no effect)); Herbicidal effect by foliage application, P: chickweed (chickweed): 4 (Herbicidal rate of 70% or more and less than 90%) |
| CCSc1ccccc1-c1sc2c(Cl)cccc2c1-c1c(O)c(C)nn(C)c1=O [4-090] | – | – | – | – | – | 3 (Herbicidal rate of 40% or more and less than 70%) | – | – | – | – | – | – | 5 (Herbicidal rate of 90% or more (almost completely withered)) | 2 (Herbicidal rate of 20% or more and less than 40%) | – | 3 (Herbicidal rate of 40% or more and less than 70%) | 4 (Herbicidal rate of 70% or more and less than 90%) | 0 (Herbicidal rate of 5% or less (almost no effect)) | 0 (Herbicidal rate of 5% or less (almost no effect)) | 0 (Herbicidal rate of 5% or less (almost no effect)) | Herbicidal effect by foliage application, N: redroot pigweed (redroot pigweed): 3 (Herbicidal rate of 40% or more and less than 70%); Herbicidal effect by foliage application, R: persian speedwell (persian speedwell): 1 (Herbicidal rate of 5% or more and less than 20%); Herbicidal effect by foliage application, H: barnyard grass (barnyard grass [1]): 3 (Herbicidal rate of 40% or more and less than 70%); Herbicidal effect by foliage application, K: Italian ryegrass (Italian ryegrass): 0 (Herbicidal rate of 5% or less (almost no effect)); Herbicidal effect by foliage application, M: velvetleaf (velvetleaf): 0 (Herbicidal rate of 5% or less (almost no effect)); Herbicidal effect by foliage application, L: windgrass (windgrass): 0 (Herbicidal rate of 5% or less (almost no effect)); Herbicidal effect by foliage application, P: chickweed (chickweed): 0 (Herbicidal rate of 5% or less (almost no effect)) |
